Here are results for five compounds from patent US10829484B2, “Compounds and methods for kinase modulation, and indications therefor” (Plexxikon Inc., priority 2015, dated 2020).

Changes are numbered by the printed parent chain.

Assay [1] addresses T1, BaF3-FLT3-ITD-D835V (Homo sapiens, UniProt P36888, INS600HVDFREYEYD/D835V, cells depend on it).
T1 sequence (P36888 with tags, fused parts or gaps INS600HVDFREYEYD/D835V): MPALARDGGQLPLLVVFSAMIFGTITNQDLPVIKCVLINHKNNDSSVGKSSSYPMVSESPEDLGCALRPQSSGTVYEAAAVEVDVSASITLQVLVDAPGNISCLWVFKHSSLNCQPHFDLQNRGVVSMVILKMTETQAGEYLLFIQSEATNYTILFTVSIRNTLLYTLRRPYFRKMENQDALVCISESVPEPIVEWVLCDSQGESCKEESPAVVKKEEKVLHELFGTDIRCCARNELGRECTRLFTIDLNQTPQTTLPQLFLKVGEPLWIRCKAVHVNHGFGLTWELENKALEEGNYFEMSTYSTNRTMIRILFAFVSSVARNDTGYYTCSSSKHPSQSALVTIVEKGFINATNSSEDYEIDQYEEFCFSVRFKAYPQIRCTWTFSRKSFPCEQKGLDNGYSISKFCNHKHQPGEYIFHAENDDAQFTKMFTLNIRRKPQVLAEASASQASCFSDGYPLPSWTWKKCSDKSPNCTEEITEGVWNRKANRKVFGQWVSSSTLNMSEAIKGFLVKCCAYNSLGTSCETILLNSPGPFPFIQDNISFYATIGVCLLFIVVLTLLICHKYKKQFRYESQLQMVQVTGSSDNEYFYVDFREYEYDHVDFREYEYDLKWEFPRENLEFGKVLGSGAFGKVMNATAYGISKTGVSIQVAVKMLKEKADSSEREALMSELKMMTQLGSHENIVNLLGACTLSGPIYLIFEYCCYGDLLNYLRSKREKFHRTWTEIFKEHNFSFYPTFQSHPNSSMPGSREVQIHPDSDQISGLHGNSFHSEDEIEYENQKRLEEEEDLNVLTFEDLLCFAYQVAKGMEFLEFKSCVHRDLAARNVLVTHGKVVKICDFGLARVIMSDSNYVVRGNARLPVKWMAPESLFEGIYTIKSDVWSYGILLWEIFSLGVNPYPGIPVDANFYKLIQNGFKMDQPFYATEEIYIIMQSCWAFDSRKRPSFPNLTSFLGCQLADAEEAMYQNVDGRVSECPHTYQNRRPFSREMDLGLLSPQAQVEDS
Description: CTB viability assay CS0048, BaF3-FLT3-ITD-D835V. In kind it is cell-based, murine. Conditions: BaF3-FLT3-ITD-D835V cells, CellTiter Blue viability, 72 hours; read-out: Cell Assay: CS0048: BaF3-FLT3-ITD-D835V CTB:IC50. The source says:
(§1) Gene constructs containing the human FLT3 sequences FLT3-ITD, FLT3-ITD-F691L, FLT3-ITD-D835V and FLT3-D835V were synthesized by reverse translation of the human protein sequences, with codons optimized for mammalian expression. Sequence of the internal tandem duplication (ITD) was based on the MV4-11 ITD sequence. Synthetic DNA constructs were cloned into the pMSCV puro retroviral vector (Clontech) and transfected into the EcoPack2-293 packaging cell line (Clontech) to generate retroviruses that contain the different FLT3 constructs. Viruses were transduced into the IL-3-dependent, murine […] cell line, Ba/F3, and selected for puromycin resistance and IL-3 independence. All cell lines were cloned by limiting dilution and clones were used for all subsequent cell assays. Overexpression of the FLT3 mutants in the Ba/F3 cells results in constitutive phosphorylation of the exogenous FLT3 protein, which is required for IL-3 independence.
(§2) Cell lines were serum starved overnight in media containing 0.5% FBS, plated at 15,000 cells/well in 96-well white-walled tissue culture plates, and 3-fold serial dilutions of test compounds of Formula I were added for 72 hours at 37° C. CellTiter Blue (CTB, Promega) was added and incubated for an additional 3 hours at 37° C. Fluorescence was read at 560 nm excitation, 590 nm emission. Wells with CTB+media only were used for background subtraction, and the fluorescence of compound-treated cells was normalized to the fluorescence of DMSO-treated cells. IC50s were determined using Igor Pro software. All compounds are assayed in duplicate cell plates.
(In general: The colour change of resazurin is a common sign of viable cells or microbes.)

Assay [2] addresses T2, BaF3-FLT3-ITD-F691L (Homo sapiens, UniProt P36888, INS600HVDFREYEYD/F691L, cells depend on it).
T2 sequence (P36888 with tags, fused parts or gaps INS600HVDFREYEYD/F691L): T1 sequence (P36888 with tags, fused parts or gaps INS600HVDFREYEYD/D835V) with F701L, V845D
The experiment in a line: CTB viability assay CS0047, BaF3-FLT3-ITD-F691L. Conditions: BaF3-FLT3-ITD-F691L cells, CellTiter Blue viability, 72 hours; read-out: Cell Assay: CS0047:BaF3-FLT3-ITD-F691L CTB:IC50. In kind it is cell-based, murine.
Text: as §1, §2

Regarding `O=C(Cc1ccc(-c2cnc(Nc3cnccn3)nc2)cc1F)Nc1cc(C2(C(F)(F)F)CC2)on1` [P-086, 2-[2-fluoro-4-[2-(pyrazin-2-ylamino)pyrimidin-5-yl]phenyl]-N-[5-[1-(trifluoromethyl)cyclopropyl]isoxazol-3-yl]acetamide], the GI50 in assay [1] and in assay [2] was 10 to 50 nM in each case.
`Cc1nn(C2CC2)cc1Nc1ncc(-c2ccc(CC(=O)Nc3cc(C4(C(F)(F)F)CC4)on3)c(F)c2)c(C)n1` [P-130, 2-[4-[2-[(1-cyclopropyl-3-methylpyrazol-4-yl)amino]-4-methyl-pyrimidin-5-yl]-2-fluorophenyl]-N-[5-[1-(trifluoromethyl)cyclopropyl]isoxazol-3-yl]acetamide]: the GI50 in assay [1] and in assay [2] was 10 to 50 nM each time.
For the compound `CC(C)c1nn(C)cc1Nc1ncc(-c2ccc(CC(=O)Nc3cc(C4(C(F)(F)F)CC4)on3)c(F)c2)cn1` [P-168, 2-[2-fluoro-4-[2-[(3-isopropyl-1-methyl-pyrazol-4-yl)amino]pyrimidin-5-yl]phenyl]-N-[5-[1-(trifluoromethyl)cyclopropyl]isoxazol-3-yl]acetamide], the GI50 in assay [1] and in assay [2] was 10 to 50 nM throughout.
Consider `C=CC(=O)Nc1nn(C)cc1Nc1ncc(-c2ccc(CC(=O)Nc3cc(C4(C(F)(F)F)CC4)on3)c(F)c2)cn1` [P-125, N-[4-[[5-[3-fluoro-4-[2-oxo-2-[[5-[1-(trifluoromethyl)cyclopropyl]isoxazol-3-yl]amino]ethyl]phenyl]pyrimidin-2-yl]amino]-1-methyl-pyrazol-3-yl] prop-2-enamide], for which the GI50 in assay [1] lay within 50 to 100 nM; in assay [2] it was 10 to 50 nM.
For `Cc1nn(C)cc1Nc1ncc(-c2ccc(CC(=O)Nc3cc(C4(C(F)(F)F)CC4)on3)c(F)c2)c(N)n1` [P-149, 2-[4-[4-amino-2-[(1,3-dimethylpyrazol-4-yl)amino]pyrimidin-5-yl]-2-fluorophenyl]-N-[5-[1-(trifluoromethyl)cyclopropyl]isoxazol-3-yl]acetamide], the GI50 in assay [1] and in assay [2] was 10 to 50 nM in each case.
